This note sets out measurements from patent US10065928B2, “Quinolinone compound and use thereof” (Sunshine Lake Pharma Co., Ltd., priority 2014, dated 2018).

Series [1] concerns erythropoietin (EPO) production in Hep3B cells. The series can be described thus: Activity in inducing erythropoietin (EPO) production in vitro, Hep3B cells, EPO ELISA. The series is classed as cell-based. The note with it: Homo sapiens, 24 h, EPO in supernatant by ELISA. The procedure: The activities of compounds of the invention in inducing erythropoietin (EPO) production were assessed by using human live cancer cell strain Hep3B (ATCC: American type culture collection, Manassas, Va.). Hep3B cells seeded in a 96-well plate with a density of 2.5×10^4 cells/well were cultivated overnight in DMEM culture medium (Dulbecco's Modified Eagle's Medium) at 37° C. in the presence of 10% fetal bovine serum (FBS). The next day, the supernatant liquid of culture medium was abandoned by suction, and to the residue was added fresh DMEM (containing 0.5% DMSO, 0.5% FBS) containing compound of the invention with a series of concentrations (0.31160.00 μM) or containing solvent used for comparison. The cells were cultivated at 37° C. for 24 h. The supernatant liquid was collected and the EPO concentration of the supernatant was quantified by using human EPO ELISA kit (Abcam). The activity of each compound in inducing erythropoietin (EPO) production was represented by half maximal effective concentration (EC50).

A short description of series [2]: Pharmacokinetic assay in male SD rats (iv and oral). In kind it is in vivo. The conditions noted are these: for F: po 5 mg/kg vs iv 1 mg/kg; for AUC(0-t) / Cmax / Tmax / clearance / half-life / Vd: rat, plasma; for Vd: read-out: Vss. The method, then: Preparation of test compound solutions: the test compound solution was prepared for oral and intravenous administration by using 5% DMSO, 5% Solutol HS 15 and 90% normal saline.
Male SD rats weighing 190-250 g were randomly divided into two groups, and each group had three rats; one group was administered with test compound at a dose of 1.0 mg/kg by intravenous injection, the other group was administered with test compound at a dose of 5.0 mg/kg by oral. After administering, blood samples were collected at time points of 0.0833, 0.25, 0.5, 1.0, 2.0, 4.0, 7.0 and 24 h. Standard curve was plotted based on concentrations of the samples in a suitable range, and the concentrations of test compounds in plasma samples were determined by using AB SCIEX API4000 LC-MS/MS in MRM mode. Pharmacokinetic parameters were calculated according to drug concentration−time curve using a noncompartmental method with WinNonLin 6.3 software.

Consider `O=C(O)CNC(=O)c1c(O)c2ccc(Oc3ccccc3)cc2n(CC2CC2)c1=O` [Example 2, 2-(1-(cyclopropylmethyl)-4-hydroxy-2-oxo-7-phenoxy-1,2-dihydroquinoline-3-carboxamido)acetic acid], for which, in series [1], the EC50 came to 5 µM. In series [2], the F is reported as 100.4%. Further, in series [2] (iv, 1 mg/kg), the AUC(0-t) turned out to be 20200 ng·h/mL, the highest level (Cmax) was 7190 ng/mL, the Tmax is 0.222 h and the clearance turned out to be 0.833 mL/min/kg. In series [2] (iv, 1 mg/kg), the half-life was 3.74 h and the Vd was determined as 0.159 L/kg. Further, in series [2] (po, 5 mg/kg), the AUC(0-t) is 101000 ng·h/mL, the Cmax was determined as 13200 ng/mL, the Tmax turned out to be 2.17 h and the half-life is 3.99 h.
The compound `Cn1c(=O)c(C(=O)NCC(=O)O)c(O)c2ccc(Oc3cc(F)ccc3F)cc21` [Example 19, 2-(7-(2,5-difluorophenoxy)-4-hydroxy-1-methyl-2-oxo-1,2-dihydroquinoline-3-carboxamido)acetic acid] yielded an EC50 in series [1] of 2.26 µM. Further, the F in series [2] is on record as 98.7%. Further, in series [2] (iv, 1 mg/kg), the AUC(0-t) came to 8260 ng·h/mL, the highest level (Cmax) was 6080 ng/mL, the Tmax was 0.083 h and the clearance stood at 2.06 mL/min/kg. Also, in series [2] (iv, 1 mg/kg), the half-life is 1.09 h and the Vd is 0.164 L/kg. For the same compound, in series [2] (po, 5 mg/kg), the AUC(0-t) amounted to 41000 ng·h/mL, the peak level (Cmax) was 9560 ng/mL, the Tmax was 0.5 h and the half-life was 1.4 h.
In the case of `Cn1c(=O)c(C(=O)NCC(=O)O)c(O)c2ccc(Oc3ccccc3)cc21` [Example 1, 2-(4-hydroxy-1-methyl-2-oxo-7-phenoxy-1,2-dihydroquinoline-3-carboxamido)acetic acid], a half-maximal effect in series [1] (EC50) was put at 5.35 µM. The compound also gave a F in series [2] of 81.5%. In series [2] (iv, 1 mg/kg), the AUC(0-t) worked out at 9340 ng·h/mL, the concentration peaked (Cmax) at 8910 ng/mL, the Tmax came to 0.083 h and the clearance was 1.77 mL/min/kg. In series [2] (iv, 1 mg/kg), the half-life is 7.79 h and the Vd worked out at 0.234 L/kg. Also, in series [2] (po, 5 mg/kg), the AUC(0-t) is 38400 ng·h/mL, the Cmax worked out at 18400 ng/mL, the Tmax came out at 0.667 h and the half-life is 4.2 h.
For `Cn1c(=O)c(C(=O)NCC(=O)O)c(O)c2ccc(Oc3ccc(F)cc3Cl)cc21` [Example 28, 2-(7-(2-chloro-4-fluorophenoxy)-4-hydroxy-1-methyl-2-oxo-1,2-dihydroquinoline-3-carboxamido)acetic acid], in series [1], the EC50 came to 1.51 µM. The same compound displayed a F in series [2] of 107.8%. In series [2] (iv, 1 mg/kg), the AUC(0-t) turned out to be 6200 ng·h/mL, the highest level (Cmax) was 4170 ng/mL, the Tmax worked out at 0.083 h and the clearance turned out to be 2.67 mL/min/kg. Besides, in series [2] (iv, 1 mg/kg), the half-life is 0.99 h and the Vd was found to be 0.217 L/kg. In series [2] (po, 5 mg/kg), the AUC(0-t) was 33300 ng·h/mL, the Cmax was determined as 11700 ng/mL, the Tmax was 0.917 h and the half-life was 1.76 h.
